# In patent US20020128311A1, “Halocyanoacetamide antimicrobial compositions” (priority 2000, published 2002):
# Tests used:
# Format in all cases: physicochemical
# [1] = Freeze/thaw stability of DCOIT/DBNPA/surfactant/GTA compositions, HPLC; conditions: for % DBNPA retained after Freezing and Thawing: thawed at 25° C. 5 hours, three times
# Procedure: Samples were prepared to test the freeze/thaw stability of compositions of the present invention. The freeze/thaw test was conducted for compositions of […], surfactant and GTA prepared in Example 4. Samples (20 g each) were stored at -10° C. or -25° C. for 19 hours to be frozen; samples were then stored at 25° C. for 5 hours to be thawed. This sequence was repeated three times. Then the concentrations of active ingredients ([…]) in the compositions were determined by HPLC.
# [2] = Stability of DBNPA in various solvents, stored at 60° C., HPLC; conditions: for % DBNPA retained: 2.0 g DBNPA + 8.0 g solvent
# [3] = Stability of DCOIT and DBNPA mixtures in GTA, stored at 40° C., HPLC; conditions: 4% DCOIT
# Procedure: […] […] Surfactants were TweenTM 20, TritonTM DF-12 or TritonTM CF-10. These compositions were stored at 40° C. for 6 weeks and the concentrations of active ingredients ([…]) in the compositions were determined by HPLC at the indicated time intervals.
# [4] = Stability of CMIT and DBNPA mixtures in GTA, stored at 50° C., HPLC; conditions: […]% CMIT/MIT mixture
# Procedure: Surfactants were TweenTM 20, TritonTM DF-12 or TritonTM CF-10. The compositions were stored at 50° C. for 4 weeks and the concentrations of active ingredients ([…]) in the compositions were determined by HPLC at the indicated time intervals.
compound,measurement,setting,value
"N#CC(Br)(Br)C(N)=O [DBNPA, 2,2-dibromo-3-nitrilopropionamide]",% DBNPA retained after Freezing and Thawing,"[1]; Example 4 composition with Triton CF-10, frozen at −10° C. 19 hours",98.8%
same,% DBNPA retained after Freezing and Thawing,"[1]; Example 4 composition with Triton CF-10, frozen at −25° C. 19 hours",98.8%
same,% DBNPA retained after Freezing and Thawing,"[1]; Example 4 composition with Triton DF-12, frozen at −10° C. 19 hours",98.8%
same,% DBNPA retained after Freezing and Thawing,"[1]; Example 4 composition with Triton DF-12, frozen at −25° C. 19 hours",99%
same,% DBNPA retained after Freezing and Thawing,"[1]; Example 4 composition with Tween 20, frozen at −10° C. 19 hours",99.2%
same,% DBNPA retained after Freezing and Thawing,"[1]; Example 4 composition with Tween 20, frozen at −25° C. 19 hours",99.1%
same,physical stability (appearance) during freeze/thaw cycling,[1]; in GTA solutions in the presence of surfactants,"clear solution, no precipitation or phase separation observed"
same,% retained,"[2]; after 4 weeks in glycol, amide, ether and ketone solvents",less than 50%
same,% DBNPA retained,"[2]; solvent 62% dipropylene glycol in water (comparative), 1 week",95%
same,% DBNPA retained,"[2]; solvent 62% dipropylene glycol in water (comparative), 4 weeks",20%
same,% DBNPA retained,"[2]; solvent 75% dipropylene glycol in water (comparative), 1 week",79%
same,% DBNPA retained,"[2]; solvent 86% dipropylene glycol in water (comparative), 1 week",49%
same,% DBNPA retained,"[2]; solvent GTA, 1 week",92%
same,% DBNPA retained,"[2]; solvent GTA, 2 weeks",100%
same,% DBNPA retained,"[2]; solvent GTA, 3 weeks",100%
same,% DBNPA retained,"[2]; solvent GTA, 4 weeks",100%
same,% DBNPA retained,"[2]; solvent PGMEA (comparative), 1 week",80%
same,% DBNPA retained,"[2]; solvent PGMEA (comparative), 2 weeks",65%
same,% DBNPA retained,"[2]; solvent PGMEA (comparative), 3 weeks",61%
same,% DBNPA retained,"[2]; solvent PGMEA (comparative), 4 weeks",45%
same,% DBNPA retained,"[2]; solvent diethyl phthalate, 1 week",100%
same,% DBNPA retained,"[2]; solvent diethyl phthalate, 2 weeks",98%
same,% DBNPA retained,"[2]; solvent diethyl phthalate, 3 weeks",98%
same,% DBNPA retained,"[2]; solvent diethyl phthalate, 4 weeks",98%
same,% DBNPA retained,"[2]; solvent dimethyl formamide (comparative), 1 week",73%
same,% DBNPA retained,"[2]; solvent dimethyl formamide (comparative), 2 weeks",46%
same,% DBNPA retained,"[2]; solvent ethyl acetate, 1 week",100%
same,% DBNPA retained,"[2]; solvent ethyl acetate, 2 weeks",100%
same,% DBNPA retained,"[2]; solvent ethyl acetate, 3 weeks",100%
same,% DBNPA retained,"[2]; solvent ethyl acetate, 4 weeks",100%
same,% DBNPA retained,"[2]; solvent methyl amyl ketone (comparative), 1 week",9%
same,% DBNPA retained,"[2]; solvent methyl amyl ketone (comparative), 2 weeks",12%
same,% DBNPA retained,"[2]; solvent methyl amyl ketone (comparative), 3 weeks",0%
same,% DBNPA retained,"[2]; solvent octyl pyrrolidone (comparative), 1 week",62%
same,% DBNPA retained,"[2]; solvent octyl pyrrolidone (comparative), 2 weeks",50%
same,% DBNPA retained,"[2]; solvent octyl pyrrolidone (comparative), 3 weeks",45%
same,% DBNPA retained,"[2]; solvent triethylene glycol dimethyl ether (comparative), 1 week",15%
same,% DBNPA retained,"[2]; solvent triethylene glycol dimethyl ether (comparative), 2 weeks",0%
same,% DBNPA retained,"[3]; 5% Triton CF-10, 66% GTA, 4 Weeks",93.5%
same,% DBNPA retained,"[3]; 5% Triton CF-10, 66% GTA, 6 Weeks",91.2%
same,% DBNPA retained,"[3]; 5% Triton CF-10, 66% GTA, Time 0",100.0%
same,% DBNPA retained,"[3]; 5% Triton DF-12, 66% GTA, 4 Weeks",92.3%
same,% DBNPA retained,"[3]; 5% Triton DF-12, 66% GTA, 6 Weeks",92.0%
same,% DBNPA retained,"[3]; 5% Triton DF-12, 66% GTA, Time 0",100.0%
same,% DBNPA retained,"[3]; 5% Tween 20, 66% GTA, 4 Weeks",93.3%
same,% DBNPA retained,"[3]; 5% Tween 20, 66% GTA, 6 Weeks",92.1%
same,% DBNPA retained,"[3]; 5% Tween 20, 66% GTA, Time 0",100.0%
same,% DBNPA retained,"[4]; 5% Triton CF-10, 45% GTA, 0 Time",100%
same,% DBNPA retained,"[4]; 5% Triton CF-10, 45% GTA, 1 Week",97%
same,% DBNPA retained,"[4]; 5% Triton CF-10, 45% GTA, 2 Weeks",93%
same,% DBNPA retained,"[4]; 5% Triton CF-10, 45% GTA, 3 Weeks",77%
same,% DBNPA retained,"[4]; 5% Triton CF-10, 45% GTA, 4 Weeks",69%
same,% DBNPA retained,"[4]; 5% Triton DF-12, 45% GTA, 0 Time",100%
same,% DBNPA retained,"[4]; 5% Triton DF-12, 45% GTA, 1 Week",98%
same,% DBNPA retained,"[4]; 5% Triton DF-12, 45% GTA, 2 Weeks",95%
same,% DBNPA retained,"[4]; 5% Triton DF-12, 45% GTA, 3 Weeks",73%
same,% DBNPA retained,"[4]; 5% Triton DF-12, 45% GTA, 4 Weeks",68%
same,% DBNPA retained,"[4]; 5% Tween 20, 45% GTA, 0 Time",100%
same,% DBNPA retained,"[4]; 5% Tween 20, 45% GTA, 1 Week",97%
same,% DBNPA retained,"[4]; 5% Tween 20, 45% GTA, 2 Weeks",71%
same,% DBNPA retained,"[4]; 5% Tween 20, 45% GTA, 3 Weeks",61%
same,% DBNPA retained,"[4]; 5% Tween 20, 45% GTA, 4 Weeks",54%
same,% DBNPA retained,"[4]; no surfactant, 50% GTA, 0 Time",100%
same,% DBNPA retained,"[4]; no surfactant, 50% GTA, 1 Week",98%
same,% DBNPA retained,"[4]; no surfactant, 50% GTA, 2 Weeks",90%
same,% DBNPA retained,"[4]; no surfactant, 50% GTA, 3 Weeks",85%
same,% DBNPA retained,"[4]; no surfactant, 50% GTA, 4 Weeks",78%
